The Emax is the size of the effect at its maximum, as opposed to the concentration needed.

From patent US10239849B2 (Merck Sharp & Dohme Corp., priority 2015, dated 2019) come the findings set out here.

The structures appear in SMILES notation.

Assay [1] addresses T1, glutathione-S-transferase (GST) tagged LXRbeta LBD (ligand binding domain) (Homo sapiens, UniProt P55055).
T1 construct: purchased Invitrogen pv4658.pps
T1 sequence (P55055 222-460 limits assumed): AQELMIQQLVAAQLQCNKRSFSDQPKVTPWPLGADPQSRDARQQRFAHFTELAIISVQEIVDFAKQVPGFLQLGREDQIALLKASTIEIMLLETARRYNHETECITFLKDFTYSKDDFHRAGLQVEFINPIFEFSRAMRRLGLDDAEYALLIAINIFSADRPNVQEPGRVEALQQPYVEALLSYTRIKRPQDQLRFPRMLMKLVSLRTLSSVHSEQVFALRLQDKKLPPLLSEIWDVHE
In words: LanthaScreen TR-FRET Liver X Receptor Coactivator Assay, LXR beta-LBD. The conditions noted are these: for Emax: efficacy in relation to reference dual agonist T1317, read-out: LXR beta activity at max dose (%) (Emax); for EC50: potency (Inflection Point) of co-activator recruitment, TR-FRET, read-out: LXR beta IP. It is filed as biochemical. The essentials:
(§1)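 LXR alpha- or beta-LBD was added to test compounds, then a mix of fluorescein-labelled coactivator peptide and terbium anti-GST antibody. After room-temperature incubation, TR-FRET was read on a filter-based reader.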

Assay [2] concerns the target T2, glutathione-S-transferase (GST) tagged LXRalpha LBD (ligand binding domain) (Homo sapiens, UniProt Q13133).
T2 construct: purchased Invitrogen pv4655
T2 sequence (Q13133 209-447 limits assumed): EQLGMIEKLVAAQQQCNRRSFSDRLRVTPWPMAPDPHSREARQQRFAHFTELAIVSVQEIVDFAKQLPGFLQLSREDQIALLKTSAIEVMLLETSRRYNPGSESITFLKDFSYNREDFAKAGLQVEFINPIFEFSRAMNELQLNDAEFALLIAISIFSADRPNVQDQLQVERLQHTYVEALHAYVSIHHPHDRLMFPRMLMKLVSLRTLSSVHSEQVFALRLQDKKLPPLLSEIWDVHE
In words: LanthaScreen TR-FRET Liver X Receptor Coactivator Assay, LXR alpha-LBD. It is filed as biochemical. Particulars: for Emax: efficacy in relation to reference dual agonist T1317, read-out: LXR alpha activity at max dose (%) (Emax); for EC50 / LXR alpha IP (nM): potency (Inflection Point) of co-activator recruitment, TR-FRET; for EC50: read-out: LXR alpha IP. A digest of the protocol: as §1
(In general: TR-FRET usually uses a lanthanide donor and a delayed reading to cut background.)

With `CN(C)C(=O)c1ccc(-c2cnc(N3CCN(C(=O)OCc4ccccc4F)CC3)c(C#N)c2)cc1Cl` [Example 3-6, 2-fluorobenzyl 4-{5-[3-chloro-4-(dimethylcarbamoyl)phenyl]-3-cyanopyridin-2-yl}piperazine-1-carboxylate], the Emax in assay [1] is 92%; in assay [2] it was 50%. In addition, the EC50 in assay [1] came to 21 nM; in assay [2], 6610 nM.

On to `CN(C)C(=O)c1ccc(-c2cnc(N3CCN(S(=O)(=O)Cc4ccccc4Cl)CC3)c(C#N)c2)cc1Cl` [Example 1-12, 2-chloro-4-(6-{4-[(2-chlorobenzyl)sulfonyl]piperazin-1-yl}-5-cyanopyridin-3-yl)-N,N-dimethylbenzamide], for which, in assay [1], the maximal response (Emax) came out at 97% and the EC50 was 28 nM. Moreover, in assay [2], the Emax turned out to be 27% and the EC50 was found to be 7400 nM.

For `CC(O)CN(CC(C)O)C(=O)c1ccc(-c2cnc(N3CCN(C(=O)OC(C)(C)C)CC3)c(C#N)c2)cc1Cl` (centres unmarked) [Example 5-25, tert-butyl 4-(5-{4-[bis(2-hydroxypropyl)carbamoyl]-3-chlorophenyl}-3-cyanopyridin-2-yl)piperazine-1-carboxylate], in assay [1], the Emax was found to be 56% and the EC50 worked out at 741 nM. In assay [2], the Emax stood at 36% and the EC50 stood at 7890 nM.

Take `CN(C)C(=O)c1ccc(-c2cnc(N3CCN(C(=O)OCc4ccccc4Cl)CC3)c(C#N)c2)cc1Cl` [Example 3-9, 2-chlorobenzyl 4-{5-[3-chloro-4-(dimethylcarbamoyl)phenyl]-3-cyanopyridin-2-yl}piperazine-1-carboxylate]: in assay [1], the Emax is 84% and the EC50 came out at 155 nM. For the same molecule, in assay [2], the Emax is 39% and the EC50 came out at 8900 nM.

For `CN(C)C(=O)c1c(Cl)cc(-c2cnc(N3CC4CCC3CN4C(=O)OC(C)(C)C)c(C#N)c2)cc1Cl` (centres unmarked) [Example 7-4, tert-butyl 5-(3-cyano-5-(3,5-dichloro-4-(dimethylcarbamoyl)phenyl)pyridin-2-yl)-2,5-diazabicyclo[2.2.2]octane-2-carboxylate], in assay [1], the Emax worked out at 62% and the EC50 turned out to be 49 nM. Further, in assay [2], the Emax came to 11% and the EC50 amounted to 671 nM.

Take `CC(C)COC(=O)N1CCN(c2ncc(-c3ccc(C(=O)N(C)C)c(Cl)c3)cc2C#N)CC1` [Example 3-2, 2-methylpropyl 4-{5-[3-chloro-4-(dimethylcarbamoyl)phenyl]-3-cyanopyridin-2-yl}piperazine-1-carboxylate]: in assay [1], the Emax came to 41% and the EC50 was found to be 1560 nM. Also, in assay [2], the Emax worked out at 19% and the “LXR alpha IP (nM)” value is “No IP”.

For `CN(C)C(=O)c1ccc(-c2cnc(N3CCN(C(=O)OCc4cncs4)CC3)c(C#N)c2)cc1Cl` [Example 3-3, 1,3-thiazol-5-ylmethyl 4-{5-[3-chloro-4-(dimethylcarbamoyl)phenyl]-3-cyanopyridin-2-yl}piperazine-1-carboxylate], in assay [1], the Emax stood at 62% and the EC50 is 217 nM. In assay [2], the Emax stood at 42% and the EC50 turned out to be 19800 nM.

Regarding `CN(C)C(=O)c1ccc(-c2ccc(N3CCN(C(=O)[C@](O)(c4ccccc4)C(F)(F)F)CC3)cc2)cc1Cl` [Example 2-27, 3-chloro-N,N-dimethyl-4′-{4-[(2R)-3,3,3-trifluoro-2-hydroxy-2-phenylpropanoyl]piperazin-1-yl}biphenyl-4-carboxamide], in assay [1], the Emax is 80% and the EC50 stood at 226 nM. Also, in assay [2], the Emax was 14% and the “LXR alpha IP (nM)” value is “No IP”.

For the molecule `CN(C)C(=O)c1ccc(-c2cnc(N3CCN(C(=O)OC(C)(C)C)CC3Cc3ccccc3)c(C#N)c2)cc1Cl` (centres unmarked) [Example 8-13, tert-butyl 3-benzyl-4-{5-[3-chloro-4-(dimethylcarbamoyl)phenyl]-3-cyanopyridin-2-yl}piperazine-1-carboxylate], in assay [1], the Emax worked out at 120% and the EC50 was 18 nM. Moreover, in assay [2], the Emax stood at 78% and the EC50 turned out to be 538 nM.

Regarding `CN(C)C(=O)c1ccc(-c2cnc(N3CCN(C(=O)C45CC(C4)C5)CC3)c(C#N)c2)cc1Cl` [Example 2-4, 4-{6-[4-(bicyclo[1.1.1]pent-1-ylcarbonyl)piperazin-1-yl]-5-cyanopyridin-3-yl}-2-chloro-N,N-dimethylbenzamide], in assay [1], the Emax was 79% and the EC50 was 95 nM. In assay [2], the Emax was 44% and the EC50 was 12800 nM.

Regarding `CN(C)C(=O)c1ccc(-c2cnc(N3CCN(S(=O)(=O)C(F)F)CC3)c(C#N)c2)cc1Cl` [Example 1-3, 2-chloro-4-(5-cyano-6-{4-[(difluoromethyl)sulfonyl]piperazin-1-yl}pyridin-3-yl)-N,N-dimethylbenzamide], in assay [1], the Emax was 93% and the EC50 stood at 200 nM. In addition, in assay [2], the Emax came to 52% and the EC50 is 10500 nM.

For `Cc1ccccc1COC(=O)N1CCN(c2ncc(-c3ccc(C(=O)N(C)C)c(Cl)c3)cc2C#N)CC1` [Example 3-4, 2-methylbenzyl 4-{5-[3-chloro-4-(dimethylcarbamoyl)phenyl]-3-cyanopyridin-2-yl}piperazine-1-carboxylate], in assay [1], the Emax turned out to be 86% and the EC50 was 87 nM. In assay [2], the Emax turned out to be 122% and the EC50 is 2820 nM.

Consider `CN(C)C(=O)c1ccc(-c2cnc(N3CCN(C(=O)OCC4CC4(C)C)CC3)c(C#N)c2)cc1Cl` (centres unmarked) [Example 3-13, (2,2-dimethylcyclopropyl)methyl 4-{5-[3-chloro-4-(dimethylcarbamoyl)phenyl]-3-cyanopyridin-2-yl}piperazine-1-carboxylate], for which, in assay [1], the Emax was 31% and the EC50 was 105 nM. In assay [2], the Emax is 16% and the “LXR alpha IP (nM)” value is “No IP”.

`CN(C)C(=O)c1ccc(-c2ccc(N3CCN(C(=O)c4ccccc4Cl)CC3)c(Cl)c2)cc1Cl` [Example 4-4, 3,3′-dichloro-4′-{4-[(2-chlorophenyl)carbonyl]piperazin-1-yl}-N,N-dimethylbiphenyl-4-carboxamide]: in assay [1], the Emax worked out at 75% and the EC50 was 98 nM. In addition, in assay [2], the Emax came to 44% and the EC50 came to 1310 nM.

For `C=CCN(C(=O)c1ccc(-c2cnc(N3CCN(C(=O)OC(C)(C)C)CC3)c(C#N)c2)cc1Cl)C1CCS(=O)(=O)C1` (centres unmarked) [Example 5-32, tert-butyl 4-(5-{3-chloro-4-[(1,1-dioxidotetrahydro-thiophen-3-yl)(prop-2-en-1-yl)carbamoyl]phenyl}-3-cyanopyridin-2-yl)piperazine-1-carboxylate], in assay [1], the Emax is 78% and the EC50 was 2210 nM. For the same molecule, in assay [2], the Emax stood at 44% and the EC50 was determined as 23900 nM.

With `CN(C)C(=O)c1ccc(-c2cnc(N3CCN(C(=O)[C@](C)(O)c4ccccc4)CC3)c(C#N)c2)cc1Cl` [Example 2-19, 2-chloro-4-(5-cyano-6-{4-[(2R)-2-hydroxy-2-phenylpropanoyl]piperazin-1-yl}pyridin-3-yl)-N,N-dimethylbenzamide], in assay [1], the Emax amounted to 77% and the EC50 was 27 nM. For the same molecule, in assay [2], the Emax worked out at 27% and the EC50 was determined as 60200 nM.

Turning to `CN(C)C(=O)c1ccc(-c2ccc(N3CCN(C(=O)c4ccccc4Cl)CC3)cc2)cc1Cl` [Example 4-15, 3-chloro-4′-{4-[(2-chlorophenyl)carbonyl]piperazin-1-yl}-N,N-dimethylbiphenyl-4-carboxamide], in assay [1], the Emax came out at 85% and the EC50 worked out at 1670 nM. Besides, in assay [2], the Emax worked out at 16% and the “LXR alpha IP (nM)” value is “No IP”.

As for `CN(C)C(=O)c1ccc(-c2ccc(N3CCN(C(=O)c4c(F)cccc4C(F)(F)F)CC3)c(Cl)c2)cc1Cl` [Example 4-7, 3,3′-dichloro-4′-(4-{[2-fluoro-6-(trifluoromethyl)phenyl]carbonyl}piperazin-1-yl)-N,N-dimethylbiphenyl-4-carboxamide], in assay [1], the Emax worked out at 83% and the EC50 was determined as 106 nM. Also, in assay [2], the Emax was 64% and the EC50 was found to be 1280 nM.

With `CCc1cc(-c2cnc(N3CCN(C(=O)OC(C)(C)C)CC3)c(C#N)c2)ccc1C(=O)N(C)C` [Example 8-17, tert-butyl 4-{3-cyano-5-[4-(dimethylcarbamoyl)-3-ethylphenyl]pyridin-2-yl}piperazine-1-carboxylate], in assay [1], the Emax is 71% and the EC50 stood at 424 nM. Besides, in assay [2], the Emax is 41% and the EC50 was found to be 7470 nM.

With `CN(C)C(=O)c1ccc(-c2cnc(N3CCN(C(=O)C(=O)C(F)(F)F)CC3)c(C#N)c2)cc1Cl` [Example 2-9, 2-chloro-4-{5-cyano-6-[4-(3,3,3-trifluoro-2-oxopropanoyl)piperazin-1-yl]pyridin-3-yl}-N,N-dimethylbenzamide], the Emax is 99% in assay [1] and 42% in assay [2]. Besides, the EC50 in assay [1] amounted to 245 nM; in assay [2] it was 16600 nM.
